Here are results for 3 molecules from EP4741383A1, “COMPOUND AND USE THEREOF AS ANTI-CANCER DRUG” (Tyligand Bioscience (Shanghai) Limited, priority 2023, dated 2025).

For orientation: inhibition means the drop in the measured response relative to a control, in per cent.

In the series the target is T1, CYP2C9 (Homo sapiens, UniProt P11712).
T1 construct: tissue Corning or Xenotech; host or cells: human liver microsomes
T1 sequence (P11712 whole entry): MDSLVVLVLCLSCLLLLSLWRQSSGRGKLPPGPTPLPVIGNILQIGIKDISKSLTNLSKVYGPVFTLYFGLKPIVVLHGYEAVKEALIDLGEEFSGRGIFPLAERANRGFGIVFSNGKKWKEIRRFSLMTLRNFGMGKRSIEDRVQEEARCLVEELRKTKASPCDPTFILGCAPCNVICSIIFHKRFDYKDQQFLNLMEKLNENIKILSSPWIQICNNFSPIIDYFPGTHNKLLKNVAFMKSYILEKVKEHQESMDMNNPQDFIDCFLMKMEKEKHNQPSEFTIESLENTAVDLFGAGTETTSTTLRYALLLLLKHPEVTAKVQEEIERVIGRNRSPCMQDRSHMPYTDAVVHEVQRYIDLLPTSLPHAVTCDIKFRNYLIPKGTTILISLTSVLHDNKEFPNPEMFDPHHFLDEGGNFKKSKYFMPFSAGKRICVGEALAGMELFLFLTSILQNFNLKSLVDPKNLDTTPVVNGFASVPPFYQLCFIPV
Description: CYP450 inhibition in human liver microsomes, CYP2C9. The format is in vitro ADME. The note with it: pH 7.4, read-out: % CYP inhibition @ 10 µM 2C9. The text has this: According to standard methods in the field for the study of cytochrome P450 enzyme systems, such as the method described in Kerns, Edward H. and Di Li et al., Drug-like Properties: Concepts, Structure Design and Methods: from ADME to Toxicity Optimization (2008), San Diego, Academic Press, and Lin, Tong et al., In Vitro Assessment of Cytochrome P450 Inhibition: Strategies for Increasing LC/MS-Based Assay Throughput Using a One-Point IC50 Method and Multiplexing High-Performance Liquid Chromatography (J. Pharm. Sci. 2007, 96 (9), 2485). The inhibitory effect of the disclosed compounds on the cytochrome P450 enzyme system was similarly examined below.
Human liver microsomes were purchased from Corning or Xenotech. The test compounds were evaluated by detecting the metabolism of substrates for different Cyp450 isoforms by human liver microsomes.
0.1 M potassium phosphate buffer (K-buffer, pH 7.4) was pre-warmed.
100 mM K-buffer was prepared by mixing 9.5 mL of stock solution A (1 M potassium dihydrogen phosphate, prepared by dissolving 136.5 g of potassium dihydrogen phosphate in 1 L of Milli-Q water) with 40.5 mL of stock solution B (1 M potassium hydrogen phosphate, prepared by dissolving 174.2 g of potassium hydrogen phosphate in 1 L of Milli-Q water). The total volume was adjusted to 500 mL with Milli-Q water, and the buffer was titrated to pH 7.4 using KOH or H3PO4.
Test compound solution and specific inhibitor solution (400× dilution) were prepared in a 96-well plate. For the test compound, 8 µL of 10 mM test compound was transferred into 12 µL of ACN. For specific inhibitors of CYP1A2, CYP2C9, and CYP2D6: 12 µL of 1 mM α-naphthoflavone, 10 µL of 40 mM sulfaphenazole, 10 µL of 10 mM quinidine, and 8 µL of DMSO were mixed. For specific inhibitors of CYP3A4, CYP2B6, CYP2C8, and CYP2C19: 8 µL of DMSO stock solution was added to 12 µL of ACN.
A 4× diluted NADPH solution was prepared by dissolving 66.7 mg of NADPH in 10 mL of 0.1 M K-buffer (pH 7.4). […]
On to `O=C(Nc1ccc(-c2cc3cc(F)c(-c4nnn[nH]4)cc3n2C2CCC2)cc1)C(=O)Nc1ccc(N2CCC3(CCOC3)CC2)cc1` [Example 67], for which the inhibition at 10 min, 10 µM is 7.84%.

Consider `CC1(n2c(-c3ccc(NC(=O)C(=O)Nc4ccc(N5CCC6(CCOC6)CC5)cc4)cc3)cc3cc(F)c(-c4nnn[nH]4)cc32)CCC1` [Example 68], for which the inhibition at 10 min, 10 µM came to 6.51%.

For `O=C(Nc1ccc(-c2cc3cc(F)c(-c4nnn[nH]4)cc3n2C2CCC2)cc1)C(=O)Nc1ccc(N2CCC(CO)CC2)cc1` [Example 23], the inhibition at 10 min, 10 µM is -3.32%.
